Test results taken from ChEMBL document CHEMBL5696441 (Nat Chem Biol, 2011).

Tests used:
[1] = target: Serine/threonine-protein kinase 26 (Homo sapiens) (UniProt Q9P289); assay: Inhibition of human MST4 assessed as residual activity at 1 uM using RB-CTF as substrate in presence of 33P-ATP by ProQinase assay relative to control
[2] = test system: Tyrosine-protein kinase ABL1 (Homo sapiens), P00519 [H396P]; assay: Inhibition of human ABL1 H396P mutant assessed as residual activity at 1 uM using Poly(Ala,Glu,Lys,Tyr)6:2:5:1 as substrate in presence of 33P-ATP by ProQinase assay relative to control
[3] = target: Serine/threonine-protein kinase WNK2 (Homo sapiens) (UniProt Q9Y3S1); assay: Inhibition of human WNK2 assessed as residual activity at 1 uM using RBER-CHKtide as substrate in presence of 33P-ATP by ProQinase assay relative to control
[4] = target: SRSF protein kinase 3 (Homo sapiens) (UniProt Q9UPE1); assay: Inhibition of human STK23 assessed as residual activity at 1 uM using RBER-CHKtide as substrate in presence of 33P-ATP by ProQinase assay relative to control
SRSF protein kinase 3 (Homo sapiens), sequence (Q9UPE1 whole entry): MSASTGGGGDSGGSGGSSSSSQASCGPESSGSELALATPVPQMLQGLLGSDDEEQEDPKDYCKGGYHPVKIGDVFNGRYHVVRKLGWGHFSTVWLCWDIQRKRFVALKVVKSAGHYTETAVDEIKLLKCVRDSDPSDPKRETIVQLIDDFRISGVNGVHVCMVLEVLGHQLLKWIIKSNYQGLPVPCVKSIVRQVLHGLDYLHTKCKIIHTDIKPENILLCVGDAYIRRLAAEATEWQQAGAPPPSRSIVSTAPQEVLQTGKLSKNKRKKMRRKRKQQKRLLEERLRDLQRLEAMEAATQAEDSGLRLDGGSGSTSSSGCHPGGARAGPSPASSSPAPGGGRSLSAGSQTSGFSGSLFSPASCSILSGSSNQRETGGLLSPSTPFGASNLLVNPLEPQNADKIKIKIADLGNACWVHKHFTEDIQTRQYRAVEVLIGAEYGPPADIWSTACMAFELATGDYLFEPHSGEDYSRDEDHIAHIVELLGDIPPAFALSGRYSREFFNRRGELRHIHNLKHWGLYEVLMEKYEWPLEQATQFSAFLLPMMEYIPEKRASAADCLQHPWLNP

[5] = target: Proto-oncogene tyrosine-protein kinase receptor Ret (Homo sapiens) (UniProt P07949); assay: Inhibition of RET (unknown origin) assessed as remaining activity at 1 uM by Kinome scan method relative to control
[6] = target: Epidermal growth factor receptor (Homo sapiens) (UniProt P00533); assay: Inhibition of human EGFR assessed as residual activity at 1 uM using PolyEY as substrate in presence of 33P-ATP by ProQinase assay relative to control
Epidermal growth factor receptor (Homo sapiens), sequence (P00533 whole entry): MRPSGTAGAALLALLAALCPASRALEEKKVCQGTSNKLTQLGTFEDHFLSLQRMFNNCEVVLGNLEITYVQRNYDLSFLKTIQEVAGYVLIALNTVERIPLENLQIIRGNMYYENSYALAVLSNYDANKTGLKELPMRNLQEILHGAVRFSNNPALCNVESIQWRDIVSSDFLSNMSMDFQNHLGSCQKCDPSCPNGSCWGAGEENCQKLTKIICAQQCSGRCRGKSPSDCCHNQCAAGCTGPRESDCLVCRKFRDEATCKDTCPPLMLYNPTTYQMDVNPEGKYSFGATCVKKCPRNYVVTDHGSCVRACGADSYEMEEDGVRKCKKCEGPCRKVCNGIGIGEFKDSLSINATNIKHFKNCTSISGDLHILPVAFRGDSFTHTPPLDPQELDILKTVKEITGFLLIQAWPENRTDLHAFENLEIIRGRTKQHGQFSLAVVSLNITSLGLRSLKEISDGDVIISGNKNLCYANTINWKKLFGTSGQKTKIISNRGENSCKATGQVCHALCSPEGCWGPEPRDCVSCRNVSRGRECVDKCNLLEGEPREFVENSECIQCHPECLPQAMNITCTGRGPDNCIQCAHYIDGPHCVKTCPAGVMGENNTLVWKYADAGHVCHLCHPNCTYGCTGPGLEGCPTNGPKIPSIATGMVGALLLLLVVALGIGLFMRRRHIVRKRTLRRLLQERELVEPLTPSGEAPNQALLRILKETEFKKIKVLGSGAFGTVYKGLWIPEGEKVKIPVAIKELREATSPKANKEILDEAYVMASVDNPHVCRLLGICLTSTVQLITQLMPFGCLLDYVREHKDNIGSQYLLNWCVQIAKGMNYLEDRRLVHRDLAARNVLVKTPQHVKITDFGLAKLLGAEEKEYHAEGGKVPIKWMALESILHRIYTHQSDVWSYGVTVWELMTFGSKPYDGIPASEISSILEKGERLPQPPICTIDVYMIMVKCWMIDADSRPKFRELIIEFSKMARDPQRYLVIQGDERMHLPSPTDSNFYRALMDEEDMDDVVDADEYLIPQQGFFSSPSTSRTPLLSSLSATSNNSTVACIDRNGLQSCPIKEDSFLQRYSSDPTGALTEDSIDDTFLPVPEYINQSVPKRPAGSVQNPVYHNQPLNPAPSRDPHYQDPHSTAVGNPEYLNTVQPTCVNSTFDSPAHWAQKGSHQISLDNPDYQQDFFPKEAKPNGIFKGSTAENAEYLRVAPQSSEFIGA

[7] = target: T1, Mitogen-activated protein kinase 12 (Homo sapiens) (UniProt P53778); assay: Inhibition of human P38gamma assessed as residual activity at 1 uM using RBER-IRStide as substrate in presence of 33P-ATP by ProQinase assay relative to control
T1 sequence (whole entry): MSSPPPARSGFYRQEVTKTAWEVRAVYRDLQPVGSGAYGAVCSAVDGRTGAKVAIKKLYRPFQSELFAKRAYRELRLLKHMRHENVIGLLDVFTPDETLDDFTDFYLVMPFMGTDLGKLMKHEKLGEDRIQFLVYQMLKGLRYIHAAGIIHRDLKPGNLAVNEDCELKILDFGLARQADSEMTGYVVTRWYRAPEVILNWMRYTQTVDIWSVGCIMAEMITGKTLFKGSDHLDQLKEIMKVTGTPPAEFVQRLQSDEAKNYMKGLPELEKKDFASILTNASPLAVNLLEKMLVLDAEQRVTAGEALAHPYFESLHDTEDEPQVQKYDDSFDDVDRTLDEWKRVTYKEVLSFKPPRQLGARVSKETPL

[8] = target: Mitogen-activated protein kinase 13 (Homo sapiens) (UniProt O15264); assay: Inhibition of human p38delta assessed as residual activity at 1 uM using RBER-CHKtide as substrate in presence of 33P-ATP by ProQinase assay relative to control
[9] = target: T2, Serine/threonine-protein kinase PLK4 (Homo sapiens) (UniProt O00444); assay: Inhibition of human SAK assessed as residual activity at 1 uM using p38-alpha KA as substrate in presence of 33P-ATP by ProQinase assay relative to control
T2 sequence (whole entry): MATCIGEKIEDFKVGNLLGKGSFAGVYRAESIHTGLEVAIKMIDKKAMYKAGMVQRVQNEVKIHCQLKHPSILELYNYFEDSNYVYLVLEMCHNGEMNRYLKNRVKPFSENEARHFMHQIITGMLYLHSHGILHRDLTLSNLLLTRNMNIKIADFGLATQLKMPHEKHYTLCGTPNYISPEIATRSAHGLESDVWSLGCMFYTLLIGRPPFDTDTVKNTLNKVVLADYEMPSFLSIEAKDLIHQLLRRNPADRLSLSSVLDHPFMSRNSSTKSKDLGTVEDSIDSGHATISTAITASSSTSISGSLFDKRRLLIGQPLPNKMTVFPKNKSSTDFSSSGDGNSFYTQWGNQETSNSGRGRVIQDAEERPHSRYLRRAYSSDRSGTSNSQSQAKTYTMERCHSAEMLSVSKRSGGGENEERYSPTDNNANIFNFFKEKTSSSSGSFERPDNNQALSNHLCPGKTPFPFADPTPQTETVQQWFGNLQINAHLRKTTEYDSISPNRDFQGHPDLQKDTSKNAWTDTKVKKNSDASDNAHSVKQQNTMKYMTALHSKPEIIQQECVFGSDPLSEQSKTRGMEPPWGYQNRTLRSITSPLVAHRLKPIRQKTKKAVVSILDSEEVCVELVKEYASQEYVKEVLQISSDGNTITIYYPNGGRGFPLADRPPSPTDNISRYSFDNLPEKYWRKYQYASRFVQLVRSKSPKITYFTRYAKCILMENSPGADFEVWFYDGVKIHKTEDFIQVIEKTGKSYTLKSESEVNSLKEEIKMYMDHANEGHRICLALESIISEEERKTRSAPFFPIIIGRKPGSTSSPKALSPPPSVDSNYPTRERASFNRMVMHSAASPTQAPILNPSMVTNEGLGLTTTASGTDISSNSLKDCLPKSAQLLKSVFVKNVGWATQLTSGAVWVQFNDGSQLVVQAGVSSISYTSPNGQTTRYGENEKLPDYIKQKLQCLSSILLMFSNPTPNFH

[10] = target: Rhodopsin kinase GRK7 (Homo sapiens) (UniProt Q8WTQ7); assay: Inhibition of human GRK7 assessed as residual activity at 1 uM using casein as substrate in presence of 33P-ATP by ProQinase assay relative to control
[11] = target: STE20-like serine/threonine-protein kinase (Homo sapiens) (UniProt Q9H2G2); assay: Inhibition of SLK (unknown origin) assessed as remaining activity at 1 uM by Kinome scan method relative to control
STE20-like serine/threonine-protein kinase (Homo sapiens), sequence (Q9H2G2 whole entry, looked up): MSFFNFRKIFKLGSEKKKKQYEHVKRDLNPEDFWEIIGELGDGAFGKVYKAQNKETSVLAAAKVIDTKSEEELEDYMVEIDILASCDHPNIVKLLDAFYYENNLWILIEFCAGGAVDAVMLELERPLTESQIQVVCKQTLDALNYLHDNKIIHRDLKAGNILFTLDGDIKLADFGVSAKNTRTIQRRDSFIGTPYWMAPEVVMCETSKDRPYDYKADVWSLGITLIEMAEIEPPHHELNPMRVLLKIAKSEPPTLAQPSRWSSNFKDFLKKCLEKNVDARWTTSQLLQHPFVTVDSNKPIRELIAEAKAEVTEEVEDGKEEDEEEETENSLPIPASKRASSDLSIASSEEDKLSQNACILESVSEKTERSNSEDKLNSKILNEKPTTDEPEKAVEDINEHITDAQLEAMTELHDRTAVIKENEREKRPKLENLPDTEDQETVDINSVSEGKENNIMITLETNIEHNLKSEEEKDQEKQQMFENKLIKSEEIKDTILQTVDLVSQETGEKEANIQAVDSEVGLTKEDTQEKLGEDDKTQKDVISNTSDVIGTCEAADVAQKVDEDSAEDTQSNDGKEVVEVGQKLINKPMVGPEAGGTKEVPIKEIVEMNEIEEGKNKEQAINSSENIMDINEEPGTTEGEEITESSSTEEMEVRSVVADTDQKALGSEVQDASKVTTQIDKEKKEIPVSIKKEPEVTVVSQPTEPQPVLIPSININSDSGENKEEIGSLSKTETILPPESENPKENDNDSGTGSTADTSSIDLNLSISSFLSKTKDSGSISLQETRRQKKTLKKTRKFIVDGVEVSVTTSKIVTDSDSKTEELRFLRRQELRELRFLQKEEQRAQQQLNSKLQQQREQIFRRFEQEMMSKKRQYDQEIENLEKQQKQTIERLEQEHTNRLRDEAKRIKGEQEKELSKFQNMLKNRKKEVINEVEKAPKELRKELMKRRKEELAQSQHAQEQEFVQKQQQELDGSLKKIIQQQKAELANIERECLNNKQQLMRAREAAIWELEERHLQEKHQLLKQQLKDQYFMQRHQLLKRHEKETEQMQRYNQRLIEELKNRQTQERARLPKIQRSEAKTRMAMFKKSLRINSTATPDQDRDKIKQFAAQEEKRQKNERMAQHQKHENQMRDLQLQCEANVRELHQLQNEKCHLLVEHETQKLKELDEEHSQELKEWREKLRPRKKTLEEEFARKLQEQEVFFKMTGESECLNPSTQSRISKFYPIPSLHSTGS

[12] = target: CDK7/Cyclin H/MNAT1 (Homo sapiens) (UniProt P51946+P50613+P51948); assay: Inhibition of human CDK7/CyclinH/MAT1 assessed as residual activity at 1 uM using RBER-CHKtide as substrate in presence of 33P-ATP by ProQinase assay relative to control; type: protein-complex assay
[13] = target: NUAK family SNF1-like kinase 1 (Homo sapiens) (UniProt O60285); assay: Inhibition of ARK5 (unknown origin) assessed as remaining activity at 1 uM by Kinome scan method relative to control
NUAK family SNF1-like kinase 1 (Homo sapiens), sequence (O60285 whole entry): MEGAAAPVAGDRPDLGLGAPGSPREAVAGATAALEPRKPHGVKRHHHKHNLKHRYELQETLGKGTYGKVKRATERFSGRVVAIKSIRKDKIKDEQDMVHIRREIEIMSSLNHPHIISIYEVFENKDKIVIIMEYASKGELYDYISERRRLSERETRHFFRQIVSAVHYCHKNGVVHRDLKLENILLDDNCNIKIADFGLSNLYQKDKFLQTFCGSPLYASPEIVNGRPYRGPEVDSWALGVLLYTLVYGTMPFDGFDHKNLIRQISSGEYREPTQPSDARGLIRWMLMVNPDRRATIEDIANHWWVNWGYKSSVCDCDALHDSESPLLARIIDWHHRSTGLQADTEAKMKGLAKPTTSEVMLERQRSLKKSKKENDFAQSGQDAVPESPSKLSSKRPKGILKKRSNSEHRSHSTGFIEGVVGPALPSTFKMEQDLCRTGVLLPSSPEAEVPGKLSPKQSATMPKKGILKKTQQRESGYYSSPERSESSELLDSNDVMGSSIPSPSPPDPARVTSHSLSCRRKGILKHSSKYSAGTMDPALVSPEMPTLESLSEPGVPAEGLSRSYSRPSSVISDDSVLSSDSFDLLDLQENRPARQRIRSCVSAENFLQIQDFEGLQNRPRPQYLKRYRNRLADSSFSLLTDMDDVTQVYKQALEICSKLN

[14] = target: Protein kinase C beta type (Homo sapiens) (UniProt P05771); assay: Inhibition of human PKCbeta2 assessed as residual activity at 1 uM using 3xChocktide-PKC as substrate in presence of 33P-ATP by ProQinase assay relative to control
Protein kinase C beta type (Homo sapiens), sequence (P05771 2-671 limits assumed): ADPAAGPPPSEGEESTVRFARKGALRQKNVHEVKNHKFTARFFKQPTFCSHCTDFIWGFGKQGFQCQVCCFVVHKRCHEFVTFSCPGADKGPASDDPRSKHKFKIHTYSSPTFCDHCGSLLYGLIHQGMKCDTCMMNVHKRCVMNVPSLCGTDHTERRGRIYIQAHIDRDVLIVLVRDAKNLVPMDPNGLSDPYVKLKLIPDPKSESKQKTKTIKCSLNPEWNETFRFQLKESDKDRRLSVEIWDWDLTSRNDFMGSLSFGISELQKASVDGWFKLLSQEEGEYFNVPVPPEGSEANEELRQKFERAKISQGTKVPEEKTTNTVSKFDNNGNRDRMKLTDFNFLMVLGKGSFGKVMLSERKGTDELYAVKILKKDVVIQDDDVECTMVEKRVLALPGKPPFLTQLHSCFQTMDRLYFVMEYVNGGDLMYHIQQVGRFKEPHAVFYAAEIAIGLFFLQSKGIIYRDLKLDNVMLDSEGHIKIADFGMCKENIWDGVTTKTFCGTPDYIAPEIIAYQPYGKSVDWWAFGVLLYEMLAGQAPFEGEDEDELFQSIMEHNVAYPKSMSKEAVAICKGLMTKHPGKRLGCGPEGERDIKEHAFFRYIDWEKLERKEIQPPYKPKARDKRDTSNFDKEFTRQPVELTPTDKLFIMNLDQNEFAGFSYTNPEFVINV

[15] = test system: Proto-oncogene tyrosine-protein kinase receptor Ret (Homo sapiens), P07949 [V804M]; assay: Inhibition of RET V804M (unknown origin) assessed as remaining activity at 1 uM by Kinome scan method relative to control
[16] = target: NUAK family SNF1-like kinase 1 (Homo sapiens) (UniProt O60285); assay: Inhibition of human ARK5 assessed as residual activity at 1 uM using RBER-CHKtide as substrate in presence of 33P-ATP by ProQinase assay relative to control

Serine/threonine-protein kinase 26 (Homo sapiens), sequence (Q9P289 2-416 limits assumed): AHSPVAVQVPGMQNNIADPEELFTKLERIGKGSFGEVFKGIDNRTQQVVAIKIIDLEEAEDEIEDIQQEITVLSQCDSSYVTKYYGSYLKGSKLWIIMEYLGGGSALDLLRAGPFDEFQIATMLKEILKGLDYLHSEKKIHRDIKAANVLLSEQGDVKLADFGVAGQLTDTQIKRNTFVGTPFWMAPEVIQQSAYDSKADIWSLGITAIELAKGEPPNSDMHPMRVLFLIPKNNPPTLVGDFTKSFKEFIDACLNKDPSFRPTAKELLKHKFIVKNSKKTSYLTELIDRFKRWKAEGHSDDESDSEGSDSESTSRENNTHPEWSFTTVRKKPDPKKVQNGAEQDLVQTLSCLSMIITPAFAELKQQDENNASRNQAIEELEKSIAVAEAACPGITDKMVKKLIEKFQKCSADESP

O=C1c2ccc(Nc3ccc(F)cc3F)cc2CCc2ccc(OC[C@H](O)CO)cc21 [Skepinone-L] gave an Activity [1] of 106%, an Activity [2] of 99% and an Activity [3] of 95%. For the same compound, the Activity [4] was 96%, the Activity [5] was 97% and the Activity [6] was 94%. The Activity [7] was 102%, the Activity [8] was 80% and the Activity [9] was 62%. It also gave an Activity [10] of 107%, an Activity [11] of 100% and an Activity [12] of 107%. The Activity [13] was 100%, the Activity [14] was 97% and the Activity [15] was 95%. It also gave an Activity [16] of 115%.
